Molecules are shown by their SMILES.

As a reminder, the melting point is the temperature, or range, at which the solid turns liquid. For the compound `Cn1nc2c3c(cccc3c1=O)C1CNCC2C1` (centres unmarked), the melting point lay within 320 to 322 °C.
The figure for `CN1CC2Cc3cccnc3C(C2)C1.Cl.Cl` (centres unmarked) is 260 to 266 °C.

The record behind these values is patent publication US7456177B2, “Heteroaryl fused azapolycyclic compounds” (Pfizer Inc., priority 2003, dated 2008).
